Experiments:
[1] = Dynamic Moisture Sorption Assessment; format: physicochemical; details: for deliquescence: exposed to up to about 90% relative humidity at room temperature; for change in solid form (powder diffraction pattern) after two sorption/desorption cycles: two DMS cycles, PXRD compared with the starting material
Experimental: Dynamic moisture sorption (DMS) measurements were performed for each crystalline form using a VTI atmospheric microbalance, SGA-100 system (VTI Corp., Hialeah, Fla. 33016). A weighed sample was used and the humidity was lowest possible value (close to 0% RH) at the start of the analysis. […] The DMS run was performed isothermally at 25° C.

[2] = system: HCV genotype 1a replicon cell line (Huh7.5 cell background); assay: HCV Genotype 1a Replicon Assay; format: cell-based; details: Hepatitis C virus, NS3-specific protease activity in lysates, 48 or 72 hours incubation
Experimental: The HCV genotype 1a replicon cell line was obtained from Apath LLC (APC89; Huh7.5 cell background). This subgenomic replicon contains the N-terminus of the HCV core protein fused to the neomycin-resistance selectable marker. The EMCV IRES lies downstream and drives expression of the non-structural proteins NS3-NS5B. Compound potencies were determined using the NS3-specific protease activity in lysates as a measurement of compound inhibition of replicon levels.
Cells were grown at 37° C. in a 5% CO2 humidified incubator in DMEM (Invitrogen) with 10% FBS (HyClone), 1×NEAA (Invitrogen), 1× Pen-Strep (Invitrogen), and 850 μg/mL G418 (Invitrogen). On day 1 of the assay, cells were plated at 15,000 cells/well in black 96-well tissue culture plates (Costar) in 200 μL media lacking G418. […]
To determine the NS3-specific protease activity in lysates, the cells were lysed at room temperature in 50 μL/well of 50 mM Hepes pH 7.5, 150 mM NaCl, 15% Glycerol, 0.15% Triton X-100, 10 mM DTT for 20 minutes with shaking. […] Protease activity was determined by measuring fluorescence (Excitation: 340 nm; Emission: 509 nm).
To analyze the data, the fluorescence was plotted vs. the compound concentration, and EC50 values were determined from a 4-parameter robust fit model using GraphPad Prism software.

[3] = system: HCV replicon resistant mutants: genotype 1b L31V and Y93H; genotype 1a Q30R and L31V; assay: Replicon Assays Against Resistant Mutants (stably transfected Huh7 cells); format: cell-based; details: Hepatitis C virus, Huh-7, read-out: pEC50 (converted)
Experimental: To create replicon cells with resistant mutations of interest, the mutation was first introduced into the parental plasmid by site-directed mutagenesis. Mutations in genotype 1b included L31V and Y93H. Mutations in genotype 1a included Q30R and L31V. The replicon plasmid was then linearized and in vitro transcribed to RNA. The RNA was used to stably transfect Huh7 cells by electroporation, and new cell lines were selected with 500 μg/mL G418. Potencies of test compounds against these mutant cell lines were determined as previously described above for the HCV Genotype 1b and 1a replicon assays.

[4] = system: HCV replicon mutants genotype 1a Y93H, M28T, and Q30E; assay: Replicon assays against resistant mutants (transient transfection, Huh-LUNET cells); format: cell-based; details: Hepatitis C virus, read-out: pEC50 (converted)
Experimental: Potencies of test compounds against additional mutations of interest were determined using transient transfection assays. These mutants included genotype 1a Y93H, M28T, and Q30E. The mutation was first introduced into the parental plasmid by site-directed mutagenesis. The replicon plasmid was then linearized and in vitro transcribed to RNA. The RNA was used to transiently transfect Huh-LUNET cells (obtained from ReBLikon GmbH, Schriesheim, Germany) by electroporation, and the potencies of test compounds against the mutants were determined as previously described.

[5] = system: HCV genotype 1b replicon cell line (Huh7 cell background); assay: HCV Genotype 1b Replicon Assay; format: cell-based; details: Hepatitis C virus, Huh-7, luciferase activity readout, 48 hours incubation
Source text: The HCV genotype 1b replicon cell line was obtained from Apath LLC (Brooklyn, N.Y.) (APC144; Huh7 cell background). This subgenomic replicon contains the N-terminus of the HCV core protein fused to the neomycin-resistance selectable marker. The EMCV IRES lies downstream and drives expression of humanized Renilla luciferase fused to the non-structural proteins NS3-NS5B. This cell line was used to determine compound potency using the luciferase activity readout as a measurement of compound inhibition of replicon levels.
Cells were grown at 37° C. in a 5% CO2 humidified incubator in DMEM (Invitrogen) with 10% FBS (HyClone), 1×NEAA (Invitrogen), 1× Pen-Strep (Invitrogen), and 500 μg/mL G418 (Invitrogen). On day 1 of the assay, cells were plated at 10,000 cells/well in white 96-well tissue culture plates (Costar) in 200 μL media lacking G418. […] At the end of the incubation period, media and compound were removed from the plates and the luciferase activity was determined using Promega Renilla-Glo reagents.
To analyze the data, the luciferase activity was plotted vs. the compound concentration, and EC50 values were determined from a 4-parameter robust fit model with the GraphPad Prism software package (GraphPad Software, Inc., San Diego, Calif.). Results are expressed as the negative decadic logarithm of the EC50 value, pEC50. […]

[6] = humidity range of 2% to 90% relative humidity at room temperature

Molecule	deliquescence [1]	weight gain (dynamic moisture sorption) [1, 6]	change in solid form (powder diffraction pattern) after two sorption/desorption cycles [1]	EC50 [2]	EC50 [3]	EC50 [4]	EC50 [5]	weight gain (dynamic moisture sorption) ([1]; at 90% relative humidity during the initial adsorption segment)	weight gain (dynamic moisture sorption) ([1]; humidity range of 2% to 90% relative humidity at room temperature, listed as Crystalline compound 1)
Crystalline ((S)-1-{(S)-2-[4-(4′-{[6-((2R,5S)-2,5-Dimethyl-4-methylcarbamoyl-piperazin-1-yl)-pyridine-3-carbonyl]-amino}-2′-trifluoromethoxy-biphenyl-4-yl)-1H-imidazol-2-yl]-pyrrolidine-1-carbonyl}-2-methyl-propyl)-carbamic acid methyl ester dihydrochloride Anhydrous Form [anhydrous dihydrochloride salt]	neither crystalline compound 1 nor the anhydrous and hydrate forms of the crystalline dihydrochloride salt of compound 1 is deliquescent	about 0.8%	no change in form	–	–	–	–	–	–
CNC(=O)N1C[C@@H](C)N(c2ccc(C(=O)Nc3ccc(-c4ccc(-c5c[nH]c([C@@H]6CCCN6C(=O)[C@@H](NC(=O)OC)C(C)C)n5)cc4)c(OC(F)(F)F)c3)cn2)C[C@@H]1C [Compound 1, ((S)-1-{(S)-2-[4-(4′-{[6-((2R,5S)-2,5-dimethyl-4-methylcarbamoyl-piperazin-1-yl)-pyridine-3-carbonyl]-amino}-2′-trifluoromethoxy-biphenyl-4-yl)-1H-imidazol-2-yl]-pyrrolidine-1-carbonyl}-2-methyl-propyl)-carbamic acid methyl ester]	–	–	–	≤ 0.1 nM	≤ 10 nM	≤ 10 nM	≤ 0.01 nM	–	–
CNC(=O)N1C[C@@H](C)N(c2ccc(C(=O)Nc3ccc(-c4ccc(-c5c[nH]c([C@@H]6CCCN6C(=O)[C@@H](NC(=O)OC)C(C)C)n5)cc4)c(OC(F)(F)F)c3)cn2)C[C@@H]1C.Cl.Cl.O [monohydrate form, Crystalline ((S)-1-{(S)-2-[4-(4′-{[6-((2R,5S)-2,5-Dimethyl-4-methylcarbamoyl-piperazin-1-yl)-pyridine-3-carbonyl]-amino}-2′-trifluoromethoxy-biphenyl-4-yl)-1H-imidazol-2-yl]-pyrrolidine-1-carbonyl}-2-methyl-propyl)-carbamic acid methyl ester dihydrochloride Monohydrate Form]	neither crystalline compound 1 nor the anhydrous and hydrate forms of the crystalline dihydrochloride salt of compound 1 is deliquescent	–	no change in form	–	–	–	–	about 2%	–
CNC(=O)N1C[C@@H](C)N(c2ccc(C(=O)Nc3ccc(-c4ccc(-c5c[nH]c([C@@H]6CCCN6C(=O)[C@@H](NC(=O)OC)C(C)C)n5)cc4)c(OC(F)(F)F)c3)cn2)C[C@@H]1C [crystalline compound 1, Crystalline ((S)-1-{(S)-2-[4-(4′-{[6-((2R,5S)-2,5-Dimethyl-4-methylcarbamoyl-piperazin-1-yl)-pyridine-3-carbonyl]-amino}-2′-trifluoromethoxy-biphenyl-4-yl)-1H-imidazol-2-yl]-pyrrolidine-1-carbonyl}-2-methyl-propyl)-carbamic acid methyl ester]	neither crystalline compound 1 nor the anhydrous and hydrate forms of the crystalline dihydrochloride salt of compound 1 is deliquescent	about 3%	no change in form	–	–	–	–	–	≤ 3%

— US8883135B2, “Crystalline form of a pyridyl-piperazinyl hepatitis C virus inhibitor” (Theravance Biopharma R&D IP, LLC, priority 2012, dated 2014)
